Assay results taken from patent publication US5698571A, “5-HT1F mediated inhibition of neurogenic meningeal extravasation: a method for the treatment of migraine” (Eli Lilly and Company, priority 1994, dated 1997).
Structures can show the parent of a compound that is named as a salt. Where two headings read alike, the source gives them in different places.

Assays:
neurogenic inflammation = conditions: dose similar to that required to treat acute migraine in humans; cited from earlier work
5-HT1F = target: T1, 5-HT1F (Homo sapiens, UniProt P30939); assay: Radioligand binding ([3H]5-HT displacement), 5-HT1F
T1 construct: expressed in transfected cells; host or cells: Ltk- cells

[1] = Humphrey et al.; cited from earlier work
5-HT1F receptor [2] = conditions: Weinshank et al., WO93/14201; cited from earlier work
[3] = in vivo; cited from earlier work
rabbit saphenous vein = assay: Rabbit Saphenous Vein Contraction
migraine = conditions: in vivo; cited from earlier work
[4] = system: neuronal protein extravasation; assay: Protein extravasation assay (dura, stimulation of trigeminal ganglion); type: in vivo, guinea pig
5-HT1F receptor [5] = target: T2, 5-HT1F receptor (Homo sapiens, UniProt P30939); assay: Measurement of cAMP formation: inhibition of forskolin stimulated cAMP in NIH3 T3 cells transfected with the 5-HT1F receptor; type: cell-based; conditions: for agonist character at the 5-HT1F receptor in the cAMP assay: forskolin stimulated cAMP, transfected NIH3 T3 cells
T2 sequence (P30939 1-366): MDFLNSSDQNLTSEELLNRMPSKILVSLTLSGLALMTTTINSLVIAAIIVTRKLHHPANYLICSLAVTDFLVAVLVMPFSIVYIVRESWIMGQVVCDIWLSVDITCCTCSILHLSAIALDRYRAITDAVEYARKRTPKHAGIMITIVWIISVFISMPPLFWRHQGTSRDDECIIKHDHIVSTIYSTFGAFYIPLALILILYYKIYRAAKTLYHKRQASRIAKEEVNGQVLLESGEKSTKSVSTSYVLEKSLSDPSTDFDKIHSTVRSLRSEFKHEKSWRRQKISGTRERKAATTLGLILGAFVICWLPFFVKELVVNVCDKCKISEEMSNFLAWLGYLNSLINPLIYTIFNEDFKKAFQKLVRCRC

vasoconstriction = conditions: Goodman and Gilman; cited from earlier work
[6] = Oryctolagus cuniculus, read-out: Corrected Vasoconstriction EC50
[7] = Oryctolagus cuniculus; read-out: Rabbit Saphenous Vein Contraction EC50
[8] = Cavia porcellus, iv, read-out: Inhibition of Protein Extravasation i.v. ID50
[9] = Oryctolagus cuniculus, read-out: Rabbit Saphenous Vein Contraction (% Max. KCl)
[10] = i.v., 10 minutes before trigeminal ganglion stimulation; dose inhibiting extravasation by 50%

For `CNS(=O)(=O)Cc1ccc2[nH]cc(CCN(C)C)c2c1.O=C(O)CCC(=O)O` [Compound I, 3-[2-(dimethylamino)ethyl]-N-methyl-1H-indole-5-methanesulfonamide butane-1,4-dioate (1:1)], the “blockade of neurogenic inflammation” value (neurogenic inflammation) is listed as “blocked”, the “5-HT1F activity (in words)” value (5-HT1F) is listed as “significant component of 5-HT1F activity” and the “agonist at 5-HT1-like receptors, hydrophilicity” value [1] is listed as “hydrophilic agonist at 5-HT-1-like receptors”. The “crossing of the blood-brain barrier” value [1] was “does not cross the blood-brain barrier”, the “affinity for the 5-HT1F receptor” value (5-HT1F receptor [2]) was “high affinity” and the “contraindications as products of vasoconstrictive activity” value [3] was “coronary vasospasm, hypertension and angina”. For the same compound, the EC50 (rabbit saphenous vein; [6]) was 10.3 nM, the EC50 (rabbit saphenous vein; [7]) was 660 nM and the “efficacy in the treatment of migraine” value (migraine) was “effective in the treatment of migraine”. The ED50 [4, 8] was 2.6e-05 µmol/kg and the “Inhibition of Protein Extravasation i.v. ID50” value ([4]; iv) was 2.6e-08 mmol/kg.

`Cn1cc(CCN2CCC(c3c[nH]c4ccc(F)cc34)CC2)cn1` [Compound II, 5-fluoro-3-<1-<2-<1-methyl-1H-pyrazol-4-yl >ethyl>-4-piperidinyl>-1H-indolehydrochloride] gave an EC50 (rabbit saphenous vein; Oryctolagus cuniculus; read-out: Corrected Vasoconstriction EC50) of 72.9 nM, an Emax (rabbit saphenous vein; Oryctolagus cuniculus; read-out: Rabbit Saphenous Vein Contraction (% Max. KCl)) of 13.7% and an EC50 (rabbit saphenous vein; [7]) of 1000 nM. The ED50 ([4]; Cavia porcellus, iv; read-out: Inhibition of Protein Extravasation i.v. ID50) was 8e-07 µmol/kg and the “Inhibition of Protein Extravasation i.v. ID50” value ([4]; guinea pig, in vivo, iv) was 8e-10 mmol/kg.

`Oc1ccc2[nH]cc(C3CCNCC3)c2c1` [Compound III, 5-hydroxy-3-(4-piperidinyl)-1-H-indole oxalate] gave an ED50 [4, 8] of 8.9e-06 µmol/kg.

With `CCN(CC)C1CCc2cccc(Cl)c2C1.Cl` (centres unmarked) [Compound IV, 8-chloro-2-diethylamino-1,2,3,4-tetrahydronaphthalene hydrochloride] the “5-HT1F activity (in words)” value (5-HT1F) was “significant component of 5-HT1F activity”, the EC50 (rabbit saphenous vein; [6]) was 1.49 nM and the Emax (rabbit saphenous vein; [9]) was 67.2%. For the same compound, the EC50 (rabbit saphenous vein; [7]) was 1000 nM, the ED50 [4, 8] was 0.00012 µmol/kg and the “Inhibition of Protein Extravasation i.v. ID50” value [4, 10] was 1.2e-07 mmol/kg.

For `CN(C)C1CCc2[nH]c3ccc(O)cc3c2C1` (centres unmarked) [Compound V, 6-hydroxy-3-dimethylamino-1,2,3,4-tetrahydrocarbazole], the EC50 (rabbit saphenous vein; [6]) was greater than 8030 nM, the Emax (rabbit saphenous vein; [9]) was 12.4% and the EC50 (rabbit saphenous vein; Oryctolagus cuniculus, read-out: Rabbit Saphenous Vein Contraction EC50) was greater than 100000 nM. The ED50 [4, 8] was 8.7e-06 µmol/kg and the “Inhibition of Protein Extravasation i.v. ID50” value [4, 10] was 8.7e-09 mmol/kg.

In the case of `CN1C[C@H](C(=O)N[C@]2(C)O[C@@]3(O)[C@@H]4CCCN4C(=O)[C@H](Cc4ccccc4)N3C2=O)C[C@@H]2c3cccc4[nH]cc(c34)C[C@H]21` [Dihydroergotamine], the “agonist character at the 5-HT1F receptor in the cAMP assay” value (5-HT1F receptor [5]) is given as “partial agonist”, the “cAMP assay Emax at the 5-HT1F receptor” value (5-HT1F receptor [5]; percent of maximal effect of serotonin, forskolin 10 μM) is given as 49.5% and the vasoconstrictor activity (vasoconstriction) is given as “potent vasoconstrictor”. For the same compound, the ED50 [4, 8] was 2.43e-05 µmol/kg, the “inhibition of neuronal protein extravasation (in words)” value ([4]; i.v.) was “fully effective inhibitor” and the “ratio of extravasation in the dura, stimulated side compared to unstimulated side” value ([4]; i.v.; saline controls approximately 2.0 in rats, 1.8 in guinea pigs) was 1.0.

In the case of `NCCc1c[nH]c2ccc(O)cc12` [serotonin], the “agonist character at the 5-HT1F receptor in the cAMP assay” value (5-HT1F receptor [5]) is reported as “maximal effect”.
